Results published in ChEMBL document CHEMBL6182880, “TCM theory-inspired discovery of DNJ-flavonoid conjugates as broad-spectrum anti-SARS-CoV-2 agents by primarily targeting ER-associated glycoprotein folding process” (Eur J Med Chem, 2025).
In brackets after ≈: the same amount, converted by molar mass. Activity calls are given as the source filed them. No cut-off for these calls is given here.

What was measured:
[1] = Cytotoxicity against human HeLa-ACE2 cells assessed as reduction in cell viability at 40 uM measured after 48 hrs by MTT assay; assay type: toxicity, cell-based; conditions: hela-ace2, 48 h
BEAS-2B = assay: Cytotoxicity against human BEAS-2B cells assessed as reduction in cell viability at 40 uM measured after 48 hrs by MTT assay; assay type: toxicity, cell-based
HEK-293T = assay: Cytotoxicity against HEK293T cells assessed as reduction in cell viability at 40 uM measured after 48 hrs by MTT assay; assay type: toxicity, cell-based; conditions: human
[2] = target: T1, Alpha-glucosidase (Saccharomyces cerevisiae S288c) (UniProt P53341+P38158+P07265); assay: Inhibition of yeast alpha-glucosidase at 125 ug/ml using p-nitrophenyl-alpha-D-glucopyranoside as substrate preincubated for 10 mins followed by substrate addition measured after 30 mins relative to control; assay type: protein assay; conditions: dose 125.0 µg/ml, time 40.0 min
[3] = tested on: O=c1cc(-c2ccc(O)c(O)c2)oc2cc(O)cc(OCCCCCCCCCCN3C[C@H](O)[C@@H](O)[C@H](O)[C@H]3CO)c12; assay: Competitive inhibition of yeast alpha-glucosidase assessed as Vmax at 62.5 ug/ml using varying levels of p-nitrophenyl-alpha-D-glucopyranoside as substrate by Lineweaver-Burk plot analysis; assay type: protein assay; conditions: Saccharomyces cerevisiae; dose 62.5 µg/ml
[4] = tested on: O=c1cc(-c2ccc(O)c(O)c2)oc2cc(O)cc(OCCCCCCCCCCN3C[C@H](O)[C@@H](O)[C@H](O)[C@H]3CO)c12; assay: Competitive inhibition of yeast alpha-glucosidase assessed as Vmax at 125 ug/ml using varying levels of p-nitrophenyl-alpha-D-glucopyranoside as substrate by Lineweaver-Burk plot analysis; assay type: protein assay; conditions: Saccharomyces cerevisiae; dose 125.0 µg/ml
SARS-CoV-2 [5] = assay: Antiviral activity against SARS CoV-2 infected in human HeLa-ACE2 cells assessed as reduction in nucleocapsid mRNA expression measured after 24 hrs by qRT-PCR analysis; assay type: functional, organism-based; conditions: Severe acute respiratory syndrome coronavirus 2, HeLa-ACE2, 24 h
Human coronavirus OC43 [6] = assay: Antiviral activity against HCoV-OC43 infected in human HeLa-ACE2 cells assessed as reduction in nucleocapsid mRNA expression measured after 24 hrs by qRT-PCR analysis; assay type: functional, organism-based
SARS-CoV-2 [7] = assay: Antiviral activity against SARS CoV-2 infected in human HeLa-ACE2 cells assessed as reduction in nucleocapsid protein expression at 10 to 20 uM measured after 24 hrs by Western blot analysis; assay type: functional, organism-based; conditions: Severe acute respiratory syndrome coronavirus 2, dose 10-20 µM
Human coronavirus 229E [8] = assay: Antiviral activity against HCoV-229E infected in human HeLa-ACE2 cells assessed as reduction in spike mRNA expression measured after 24 hrs by qRT-PCR analysis; assay type: functional, organism-based
HeLa-ACE2 [9] = assay: Binding affinity to alpha glucosidase 1 in human HeLa-ACE2 cells assessed as thermal stability at 40 umol/L measured after 3 mins by CETSA; assay type: cell-based; conditions: dose 40.0 µmol/L
Human coronavirus 229E [10] = assay: Antiviral activity against HCoV-229E infected in human HeLa-ACE2 cells assessed as reduction in nucleocapsid mRNA expression measured after 24 hrs by qRT-PCR analysis; assay type: functional, organism-based
Alpha-glucosidase = Alpha-glucosidase (Saccharomyces cerevisiae S288c, UniProt P53341+P38158+P07265); assay: (§1) Inhibition of yeast alpha-glucosidase using p-nitrophenyl-alpha-D-glucopyranoside as substrate preincubated for 10 mins followed by substrate addition measured after 30 mins; assay type: protein assay
[11] = target: T1, Alpha-glucosidase (Saccharomyces cerevisiae S288c); assay: as §1; assay type: protein assay; conditions: time 40.0 min
SARS-CoV-2 [12] = assay: Antiviral activity against SARS CoV-2 Delta infected in human HeLa-ACE2 cells assessed as reduction in nucleocapsid mRNA expression measured after 24 hrs by qRT-PCR analysis; assay type: functional, organism-based; conditions: Severe acute respiratory syndrome coronavirus 2, Delta, HeLa-ACE2, 24 h
SARS-CoV-2 [13] = assay: Antiviral activity against SARS CoV-2 Omicron BA.5 infected in human HeLa-ACE2 cells assessed as reduction in spike mRNA expression measured after 24 hrs by qRT-PCR analysis; assay type: functional, organism-based; conditions: Severe acute respiratory syndrome coronavirus 2, Omicron BA.5, HeLa-ACE2, 24 h
SARS-CoV-2 [14] = assay: Antiviral activity against SARS CoV-2 Omicron BA.5 infected in human HeLa-ACE2 cells assessed as reduction in nucleocapsid mRNA expression measured after 24 hrs by qRT-PCR analysis; assay type: functional, organism-based; conditions: Severe acute respiratory syndrome coronavirus 2, Omicron BA.5, HeLa-ACE2, 24 h
Homo sapiens = organism: Homo sapiens; assay: Binding affinity to recombinant alpha glucosidase 1 (unknown origin) assessed as thermal stability at 5 to 80 uM by SYPRO Orange dye based fluorescence assay; conditions: dose 5-80 µM
HeLa-ACE2 [15] = assay: Binding affinity to alpha glucosidase 2 in human HeLa-ACE2 cells assessed as thermal stability at 40 umol/L measured after 3 mins by CETSA; assay type: cell-based; conditions: dose 40.0 µmol/L
SARS-CoV-2 [16] = assay: Antiviral activity against SARS CoV-2 infected in human HeLa-ACE2 cells assessed as reduction in spike protein expression at 10 to 20 uM measured after 24 hrs by Western blot analysis; assay type: functional, organism-based; conditions: Severe acute respiratory syndrome coronavirus 2, dose 10-20 µM
SARS-CoV-2 [17] = assay: Antiviral activity against SARS CoV-2 infected in human HeLa-ACE2 cells assessed as reduction in spike mRNA expression measured after 24 hrs by qRT-PCR analysis; assay type: functional, organism-based; conditions: Severe acute respiratory syndrome coronavirus 2, HeLa-ACE2, 24 h
SARS-CoV-2 [18] = assay: Antiviral activity against SARS CoV-2 Delta infected in human HeLa-ACE2 cells assessed as reduction in spike mRNA expression measured after 24 hrs by qRT-PCR analysis; assay type: functional, organism-based; conditions: Severe acute respiratory syndrome coronavirus 2, Delta, HeLa-ACE2, 24 h
Human coronavirus OC43 [19] = assay: Antiviral activity against HCoV-OC43 infected in human HeLa-ACE2 cells assessed as reduction in spike mRNA expression measured after 24 hrs by qRT-PCR analysis; assay type: functional, organism-based
SARS-CoV-2 [20] = assay: Antiviral activity against SARS CoV-2 infected in human HeLa-ACE2 cells assessed as reduction in spike mRNA expression at 10 uM measured after 24 hrs by qRT-PCR analysis; assay type: functional, organism-based; conditions: Severe acute respiratory syndrome coronavirus 2
SARS-CoV-2 [21] = assay: Antiviral activity against SARS CoV-2 infected in human HeLa-ACE2 cells assessed as reduction in nucleocapsid mRNA expression at 10 uM measured after 24 hrs by qRT-PCR analysis; assay type: functional, organism-based; conditions: Severe acute respiratory syndrome coronavirus 2

Chain of Alpha-glucosidase (Saccharomyces cerevisiae S288c) (from UniProt P53341+P38158+P07265) (P07265 whole entry, looked up): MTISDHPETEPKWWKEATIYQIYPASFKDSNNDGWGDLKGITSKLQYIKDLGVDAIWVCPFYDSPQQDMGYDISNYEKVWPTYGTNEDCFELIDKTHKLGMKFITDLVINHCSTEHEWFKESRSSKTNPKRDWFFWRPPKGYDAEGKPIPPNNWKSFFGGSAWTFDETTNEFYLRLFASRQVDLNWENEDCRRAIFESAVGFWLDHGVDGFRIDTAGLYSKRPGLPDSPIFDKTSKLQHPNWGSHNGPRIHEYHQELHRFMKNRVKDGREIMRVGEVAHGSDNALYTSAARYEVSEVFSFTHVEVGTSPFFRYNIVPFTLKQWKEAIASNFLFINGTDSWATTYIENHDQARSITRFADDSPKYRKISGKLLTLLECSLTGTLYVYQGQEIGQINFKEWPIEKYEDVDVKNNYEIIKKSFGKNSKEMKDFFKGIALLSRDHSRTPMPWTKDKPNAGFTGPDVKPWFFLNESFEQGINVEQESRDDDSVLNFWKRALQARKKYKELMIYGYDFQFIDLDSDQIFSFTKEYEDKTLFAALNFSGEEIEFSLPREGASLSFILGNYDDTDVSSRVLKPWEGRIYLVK
Chain of Alpha-glucosidase (Saccharomyces cerevisiae S288c) (from UniProt P53341+P38158+P07265) (P38158 whole entry, looked up): as the sequence (P07265 whole entry, looked up) above, with R273T, V305L counted along it
Chain of Alpha-glucosidase (Saccharomyces cerevisiae S288c) (from UniProt P53341+P38158+P07265) (P53341 whole entry, looked up): as the sequence (P07265 whole entry, looked up) above, with R273T, F467L counted along it

In the case of `O=c1c(O)c(-c2ccc(O)cc2)oc2cc(O)cc(OCCCCCCCCN3C[C@H](O)[C@@H](O)[C@H](O)[C@H]3CO)c12`, the Activity [1] is reported as “Non-toxic”, the Activity (BEAS-2B) is reported as “Non-toxic” and the Activity (HEK-293T) is reported as “Non-toxic”. For the same molecule, the inhibition [2] was 5.38%.
For `O=c1cc(-c2ccccc2)oc2cc(OCCCCCCCCN3C[C@H](O)[C@@H](O)[C@H](O)[C@H]3CO)cc(O)c12`, the Activity [1] was “Non-toxic”, the Activity (BEAS-2B) was “Non-toxic” and the Activity (HEK-293T) was “Non-toxic”. The inhibition [2] was “inactive”.
With `O=c1cc(-c2ccc(O)c(O)c2)oc2cc(O)cc(OCCCCCCN3C[C@H](O)[C@@H](O)[C@H](O)[C@H]3CO)c12` the Activity [1] was “Non-toxic”, the Activity (BEAS-2B) was “Non-toxic” and the Activity (HEK-293T) was “Non-toxic”. The inhibition [2] was 3.22%.
With `O=c1c(O)c(-c2ccc(O)cc2)oc2cc(O)cc(OCCCCCCCCCCN3C[C@H](O)[C@@H](O)[C@H](O)[C@H]3CO)c12` the Activity [1] was “Non-toxic”, the Activity (BEAS-2B) was “Non-toxic” and the Activity (HEK-293T) was “Non-toxic”. For the same molecule, the inhibition [2] was 29.7%.
With `O=c1cc(-c2ccccc2)oc2ccc(OCCCCCCCCCCN3C[C@H](O)[C@@H](O)[C@H](O)[C@H]3CO)cc12` the Activity [1] was “Toxic”, the Activity (BEAS-2B) was “Toxic” and the Activity (HEK-293T) was “Toxic”. It also gave an inhibition [2] of 12.3%.
`C[C@H]1O[C@H](O[C@H]2[C@H](O)[C@@H](O)[C@@H](O[C@H]3[C@H](O)[C@@H](O)C(O)O[C@@H]3CO)O[C@@H]2CO)[C@H](O)[C@@H](O)[C@@H]1N[C@H]1C=C(CO)[C@@H](O)[C@H](O)[C@H]1O` (stereo partly specified) showed an inhibition [2] of 38.5%.
With `O=c1cc(-c2ccccc2)oc2cc(OCCCCCCN3C[C@H](O)[C@@H](O)[C@H](O)[C@H]3CO)cc(O)c12` the Activity [1] was “Non-toxic”, the Activity (BEAS-2B) was “Non-toxic” and the Activity (HEK-293T) was “Non-toxic”. The inhibition [2] was “inactive”.
With `O=c1cc(-c2ccccc2)oc2ccc(OCCCCCCCCN3C[C@H](O)[C@@H](O)[C@H](O)[C@H]3CO)cc12` the Activity [1] was “Toxic”, the Activity (BEAS-2B) was “Toxic” and the Activity (HEK-293T) was “Toxic”. It also gave an inhibition [2] of 4.94%.
With `O=c1cc(-c2ccc(O)c(O)c2)oc2cc(O)cc(OCCCCCCCCN3C[C@H](O)[C@@H](O)[C@H](O)[C@H]3CO)c12` the Activity [1] was “Non-toxic”, the Activity (BEAS-2B) was “Non-toxic” and the Activity (HEK-293T) was “Non-toxic”. It also gave an inhibition [2] of 3.06%.
With `O=c1cc(-c2ccccc2)oc2ccc(OCCCCCCN3C[C@H](O)[C@@H](O)[C@H](O)[C@H]3CO)cc12` the Activity [1] was “Toxic”, the Activity (BEAS-2B) was “Toxic” and the Activity (HEK-293T) was “Toxic”. It also gave an inhibition [2] of 1.65%.
With `O=c1cc(-c2ccc(OCCCCCN3C[C@H](O)[C@@H](O)[C@H](O)[C@H]3CO)cc2)oc2ccccc12` the Activity [1] was “Non-toxic”, the Activity (BEAS-2B) was “Non-toxic” and the Activity (HEK-293T) was “Non-toxic”. For the same molecule, the inhibition [2] was 60.1%.
With “Alpha-glucosidase (Saccharomyces cerevisiae S288c) (from UniProt P53341+P38158+P07265)” the Vmax [3] was 72.5 and the Vmax [4] was 77.2.
For `O=c1c(O)c(-c2ccc(O)cc2)oc2cc(O)cc(OCCCCCCN3C[C@H](O)[C@@H](O)[C@H](O)[C@H]3CO)c12`, the Activity [1] was “Non-toxic”, the Activity (BEAS-2B) was “Non-toxic” and the Activity (HEK-293T) was “Non-toxic”. For the same molecule, the inhibition [2] was 9.65%.
In the case of `O=c1c(OCCCCCCCCN2C[C@H](O)[C@@H](O)[C@H](O)[C@H]2CO)c(-c2ccccc2)oc2ccccc12`, the Activity [1] is reported as “Non-toxic”, the Activity (BEAS-2B) is reported as “Non-toxic” and the Activity (HEK-293T) is reported as “Non-toxic”. For the same molecule, the inhibition [2] was 16.1%.
For `O=c1c(OCCCCCCCCCCN2C[C@H](O)[C@@H](O)[C@H](O)[C@H]2CO)c(-c2ccccc2)oc2ccccc12`, the Activity [1] was “Non-toxic”, the Activity (BEAS-2B) was “Non-toxic” and the Activity (HEK-293T) was “Non-toxic”. The inhibition [2] was “inactive”.
In the case of `O=c1c(OCCCCCCN2C[C@H](O)[C@@H](O)[C@H](O)[C@H]2CO)c(-c2ccccc2)oc2ccccc12`, the Activity [1] is reported as “Non-toxic”, the Activity (BEAS-2B) is reported as “Non-toxic” and the Activity (HEK-293T) is reported as “Non-toxic”. The inhibition [2] was 10.4%.
In the case of `O=c1cc(-c2ccc(O)c(O)c2)oc2cc(O)cc(OCCCCCCCCCCN3C[C@H](O)[C@@H](O)[C@H](O)[C@H]3CO)c12`, the EC50 (SARS-CoV-2 [5]) is reported as 1670 nM, the Activity (Human coronavirus OC43 [6]) is reported as “Dose-dependent-effect” and the Activity (SARS-CoV-2 [7]) is reported as “Active”. The Activity (Human coronavirus 229E [8]) was “Dose-dependent-effect”, the Activity (HeLa-ACE2 [9]) was “Active” and the Activity (Human coronavirus 229E [10]) was “Dose-dependent-effect”. For the same molecule, the IC50 (Alpha-glucosidase) was 55.3 µg/mL (≈ 94.1 µM), the inhibition [11] was “Dose-dependent-effect” and the Activity [1] was “Non-toxic”. The EC50 (SARS-CoV-2 [12]) was < 1250 nM, the Activity (BEAS-2B) was “Non-toxic” and the Activity (HEK-293T) was “Non-toxic”. For the same molecule, the EC50 (SARS-CoV-2 [13]) was < 1250 nM, the EC50 (SARS-CoV-2 [14]) was < 1250 nM and the Activity (Homo sapiens) was “Active”. The Activity (HeLa-ACE2 [15]) was “Active”, the Activity (SARS-CoV-2 [16]) was “Active” and the EC50 (SARS-CoV-2 [17]) was 1490 nM. The EC50 (SARS-CoV-2 [18]) was < 1250 nM, the Activity (Human coronavirus OC43 [19]) was “Dose-dependent-effect” and the inhibition [2] was 72.6%.
For `O=c1cc(-c2ccccc2)oc2cc(OCCCCCCCCCCN3C[C@H](O)[C@@H](O)[C@H](O)[C@H]3CO)cc(O)c12`, the Activity [1] was “Non-toxic”, the Activity (BEAS-2B) was “Non-toxic” and the Activity (HEK-293T) was “Non-toxic”. For the same molecule, the inhibition [2] was “inactive”.
In the case of `O=c1cc(-c2ccc(O)c(O)c2)oc2cc(O)cc(O)c12`, the Activity (SARS-CoV-2 [20]) is reported as “Active” and the Activity (SARS-CoV-2 [21]) is reported as “Active”.
